Experimental data: patent US20260273081A1, “INHIBITORS OF ETS2-ACTIVATING MOLECULES FOR THE TREATMENT OF INFLAMMATORY DISEASES” (The Francis Crick Institute Limited, priority 2023, published 2026)

How the values were obtained:
ETS2 = test: CRISPR-Cas9 editing efficiency at the ETS2 locus in primary monocytes; assay type: cell-based, human; details: Cas9 RNPs nucleofected into primary monocytes; ICE analysis
Protocol: (§1) gRNA sequences were designed using CRISPick (formerly GPP sgRNA Designer) and synthesised by IDT. gRNA sequences: chr21q22 5′ gRNA, […]; chr21q22 3′ gRNA, […]; ETS2 gRNA1, […]; ETS2 gRNA2, […]. Alt-R CRISPR-Cas9 Negative Control crRNA #1 (IDT) was used as a non-targeting control. Cas9-gRNA ribonucleoproteins were assembled as described previously and nucleofected into 5×10^6 monocytes in 100 μL nucleofection buffer (Human Monocyte Nucleofection Kit, Lonza) using a Nucleofector 2b (Lonza, program Y-001). After nucleofection, monocytes were immediately transferred into 5 ml of pre-warmed culture media in a 6-well flat-bottomed plate, and differentiated into macrophages under TPP conditions. Editing efficiency was quantified by PCR amplification of the target region in extracted DNA (chr21q22_Fw primer, […]; chr21q22_Rv, […]; ETS2_g1_Fw, […]; ETS2_g1_Rv, […]; ETS2_g2_Fw, […]; ETS2_g2_Rv, […]). Editing efficiency at the chr21q22 locus was measured via quantification of amplified fragments (2100 Bioanalyzer, Agilent) as previously described. Editing efficiency for individual gRNAs was assessed using the Inference of CRISPR Edits tool (ICE, Synthego).

macrophages = test: Viability and myeloid markers of macrophages after nucleofection with Cas9 RNPs and TPP differentiation; assay type: cell-based, human; details: TPP differentiation
Protocol: as §1
Expression of myeloid markers was assessed by flow cytometry (BD LSRFortessaTMX-20). […] Data were analysed using FlowJo v10 (BD Biosciences).

[1] = test system: inflammatory macrophages (TPP); test: MEK inhibitor (PD-0325901) testing in inflammatory macrophages (TPP), RNA-seq and fGSEA; assay type: cell-based, human
Protocol: Leukocyte cones from healthy donors were obtained from NHS Blood and Transplant (Cambridge Blood Donor Centre, Colindale Blood Centre, or Tooting Blood Donor Centre). Peripheral blood mononuclear cells (PBMCs) were isolated by density centrifugation (Histopaque 1077, Sigma) and monocytes were positively selected using CD14 Microbeads (Miltenyi Biotec). Macrophage differentiation was performed using conditions that model chronic inflammation (TPP): 3 days GM-CSF (50 ng/ml, Peprotech) followed by 3 days GM-CSF, TNFα (50 ng/ml, Peprotech), PGE2 (1 μg/ml, Sigma Aldrich), and […] (1 μg/ml, Invivogen). […]
RNA was isolated from macrophage lysates (AllPrep DNA/RNA Micro Kit, Qiagen) and sequencing libraries prepared from 10 ng RNA using the SMARTer Stranded Total RNA-Seq Kit v2-Pico Input Mammalian (Takara) following the manufacturer's instructions. Libraries were sequenced on a NextSeq2000 (50 bp, PE reads: CRISPR-based loss-of-function, roxadustat and PD-0325901 experiments) or a NovaSeq6000 (100 bp, PE reads: overexpression experiments). Reads were trimmed using Trim Galore (Phred score 24), filtered to remove reads <20 bp, and ribosomal reads were removed using the BBSplit function of BBMap (BBMap, sourceforge.net/projects/bbmap/) with the Human ribosomal DNA complete repeating unit (GenBank: U13369.1). […]

[2] = test system: intestinal mucosal biopsies from patients with active IBD; test: Human gut explant model: IBD intestinal mucosal biopsies cultured on transwell insert; assay type: cell-based; details: 18 hours culture; for release of IBD-associated inflammatory cytokines from biopsies: PD-0325901 0.5 μM or infliximab 10 µg/ml, vs DMSO, n=10
Protocol: During colonoscopy, intestinal mucosal biopsies (6 per donor) were collected from 10 IBD patients (7 ulcerative colitis, 3 Crohn's disease). All had endoscopically active disease and were not receiving immunosuppressive or biologic therapies. All biopsies were collected from a single inflamed site. All patients provided written informed consent. Ethical approval was provided by the London-Brent Regional Ethics Committee (REC: 21/LO/0682). Biopsies were collected into Opti-MEM and within 1 hour were weighed and placed in pairs onto a transwell insert (ThermoFisher)—designed to create an air-liquid interface70—in a 24-well plate. Each well contained 1 ml media and was supplemented with either DMSO (vehicle control), PD-0325901 (0.5 μM) or infliximab ([…]; MSD). Media: Opti-MEM I (Gibco); GlutaMAX (ThermoFisher): 10% FBS (ThermoFisher), MEM Non-Essential Amino Acids (ThermoFisher); 1% sodium pyruvate (ThermoFisher); 1% penicillin/streptomycin (ThermoFisher); 500 µg/ml gentamicin (Merck). After 18 hours, supernatants and biopsies were snap frozen. Supernatant cytokine concentrations were quantified using LEGENDplex Human Inflammation Panel (Biolegend). RNA was extracted from biopsies and libraries prepared as described earlier (n=9, RNA from one donor was too degraded). Sequencing was performed on a NovaSeq 6000 (100 bp, PE reads). Data were processed as described earlier and GSVA was performed for ETS2-regulated genes and biopsy-derived signatures of IBD-associated inflammation.

gRNA1: ETS2 guide RNA, CAGACACAGAAUUACCCCAA, delivered as Cas9 RNP (delivered as Cas9 ribonucleoprotein complex, further chemistry not given here)
editing efficiency at the ETS2 locus, mean indel rate (ETS2): 89.7%
viability of macrophages following nucleofection with Cas9 RNPs and differentiation, mean (macrophages): 98.3%

O=C(NOC[C@H](O)CO)c1ccc(F)c(F)c1Nc1ccc(I)cc1F [PD-0325901]
anti-inflammatory activity (relative expression of chr21q22-regulated genes), phenocopying ETS2 disruption or chr21q22 enhancer deletion ([1]; PD-0325901 0.5 μM added day 4, harvested day 6, vs vehicle (DMSO), n=3): potent anti-inflammatory activity
inflammatory pathways (fGSEA, Gene Ontology Biological Pathways) ([1]; PD-0325901 0.5 μM, day 4 to day 6, vs vehicle): downregulation of multiple inflammatory pathways
release of IBD-associated inflammatory cytokines from biopsies [2]: significantly reduced
expression of ETS2-regulated genes in IBD biopsies (GSVA) ([2]; PD-0325901 0.5 μM, n=9): reduced
validated transcriptional inflammation score (bMIS, GSVA) ([2]; PD-0325901 0.5 μM, n=9): significant improvement

gRNA2: ETS2 guide RNA, UUGCUGCACGGGGUUAACAA, delivered as Cas9 RNP (delivered as Cas9 ribonucleoprotein complex, further chemistry not given here)
editing efficiency at the ETS2 locus, mean indel rate (ETS2): 78.6%
viability of macrophages following nucleofection with Cas9 RNPs and differentiation, mean (macrophages): 98.6%

infliximab
release of IBD-associated inflammatory cytokines from biopsies [2]: comparable levels
